The values below come from patent US9796676B2, “Honeybee repellents and uses thereof” (Inscent, Inc., priority 2013, dated 2017).

Experiment [1] deals with Apis mellifera Carniolan foraging worker honeybees. The experiment in a line: Choice test in a free-flight box apparatus. The format is in vivo. The note with it: for P (probability that a honeybee will return to a test dish, nP divided by n): control likelihood without compound 47.5%; for nP (number of tests a honeybee returned to a preferred test dish): free-flight box, 2 μL of 0.05-0.5% compound on filter papers under honey dish. From the text:
To determine whether living honeybees will choice to move towards a source of a candidate compound, these compounds will be assayed using a choice test in a free-flight box apparatus.
All tests will be done in a free-flight box apparatus. The apparatus comprises a 244 cm long×46 cm deep×30 cm high clear plastic box including two equally-sized independent testing chambers, each with 10 cm diameter air inlets that admit filtered room air, separated by a smaller central chamber with a screened air outlet to each testing chamber. Air can be pulled through the sealed box via a 10 cm diameter duct from the air outlet using an AQE Fume Fighter 500 fume extractor (BPA Air Quality Solutions, LLC, Charleston, S.C.), which removes the test odors using activated charcoal and HEPA filters. The box is housed in an environmentally controlled room with overhead illumination timed to correspond to the current ambient light cycle including 2 additional sets of lights timed to approximate crepuscular lighting conditions. The bottom of the apparatus will be lined with clean absorbent paper marked with a 4×9 grid pattern, forming 12 cm×12 cm squares with marked coordinates.
Apis mellifera Carniolan foraging worker honeybees will be obtained from a local apiary (typically 60 bees per shipment). Thirty honeybees will be put into each testing chamber and will be allowed to acclimate for 24 hours with food and water freely available. At the beginning of each test day all food will be removed from the test chamber, but water will be continually available throughout all tests. For each test, approximately 0.3 g of organic, raw orange blossom honey will be added to each clean small plastic weigh boat (Cole-Palmer). The honey boats will be placed in small plastic culture dishes, which will be distributed in the marked squares in the chambers. The positions of the dishes on the grid for a set of trials will be chosen to avoid the bees' preferred resting area so that they will have to find the food actively, but the same dish positions will be maintained for a given set of trials. We will use seven dishes of honey: six to which the bees will have access and a seventh that will have a screened lid. The honey in each boat will be weighed on an analytical balance before and after the test, with the screened sample as a control for evaporative loss. The fume extractor will be left off during the experimental trails, and will be turned on to clear the air after the test dishes are covered and removed from the chamber at the end of each trial.
Based on the observation that bees tend to return to dishes in the same position where they have fed before, each set of trials with each group of bees began with “Pattern Identification” tests to see which dishes lose the most weight, reflecting the most feeding. Once bees are consuming an acceptable amount in 10-15 min, typically in 1-2 trials, a set of test compound trials will begin. The test compound will be pipetted onto pieces of filter paper placed on the dish bottom below the boat containing a fresh, weighed honey sample so that the test compound will be inaccessible to the bees. We used 2 μL of a candidate compound at a concentration of 0.05-0.5%, in Triton X-100 or paraffin oil, on each of four pieces of filter paper per dish. The test-solution dishes will be set at the same positions as the one or two dishes favored in the preceding Pattern Identification trial. To eliminate interference from the solvent, the other dishes without the test substance will contain the same volume of the appropriate solvent on filter papers as the test solution dishes. The bees will be allowed to feed for 10-15 minutes. Bee movements will be recorded by a small, wide-angle digital video camcorder (HD Hero 960; GoPro, Halfmoon Bay, Calif.) placed on a tripod in front of the test chamber. […]

For experiment [2] the test system is unchanged. The experiment in a line: Proboscis extension response (PER) assay with bees conditioned to 2-heptanone. The format is in vivo. The note with it: 0.5% compound in Triton X-100/water on filter paper, 4 s exposure; only bees giving PER with 2-heptanone and not with water or 15% Triton X-100 controls counted. As to the method: To determine whether a living honeybee can recognize a candidate compound, these compounds were tested using a proboscis extension response (PER) assay using classical conditioning approaches. Proboscis extension response conditioning is a case of appetitive learning, in which bees learn to associate odor stimuli with sucrose reward in the laboratory. In this case, bees were conditioned to produce a PER to 2-heptanone as the conditioned stimulus and a sugar reward as the unconditioned stimulus. These trained bees were then exposed to an odor pulse of a candidate compound to test whether a candidate compound would also produce a PER. If the candidate compound “mimics” 2-heptanone then the honeybee will extend its proboscis.
For conditioning procedures, Apis mellifera Carniolan foraging worker honeybees were obtained from a local apiary (typically 60 bees per shipment). The honeybees were held overnight in insect cages with food and water freely available, in an environmentally controlled room on a light cycle similar to the ambient cycle at the time of the assay.
For conditioning procedures, all tests were done in an odorant delivery apparatus set inside a fume hood. The apparatus comprised a set of open-ended, horizontal, 3 cm diameter by 10 cm long plastic tubes. Each tube was designed where a honeybee could be positioned at the distal end of a tube, with the opening at the other end of the tube located proximal to an inlet of the fume hood. To deliver an odorant, room air was pumped by a diaphragm pump through a particle filter via 0.25 inch plastic tubing at approximately 0.7 m/sec. The air flow passes into the headspace above an odorant (0.5% [v/v] 2-heptanone dissolved in odorless light paraffin oil) contained in a 100 mL bottle. The headspace air then passes through another plastic tube to a manifold of 4-way valves, each of which was attached near the proximal end of a plastic tube containing a bee. Each bee was exposed separately for a desired time period to the odorant by opening and closing the appropriate valve. When each valve was closed, the odor was flushed away immediately by the continuous fume hood air stream.
To train a honeybee to respond to a conditioned and unconditioned stimuli, bees were placed, without anesthesia, in individual 1.5 mL micro-centrifuge holding tubes and held overnight without access to food or water. The holding tubes containing the starved bees were placed in racks in groups of eight. One rack at a time was placed behind the odorant delivery apparatus so that each bee's head is centered at the distal end of a horizontal plastic tube. Each bee was exposed to the 2-heptanone odorant alone for four seconds, and then while being fed an 80% sucrose solution for and additional three seconds. The sucrose solution was delivered on a piece of saturated filter paper held in forceps. […] Positive and negative responses were recorded. A positive PER was scored when a bee extended its proboscis before the sucrose appeared. In a typical trial, 48 individual bees were subjected to conditioning.
After conditioning, honeybees were tested with the candidate compounds the same day or on the following day or, most commonly, both. When held overnight, bees were fed with sucrose and kept in their holding tubes. When tested the day after training, bees were given one or more rounds of conditioning with 2-heptatone to refresh their memories. Candidate compounds stocks were made at 5% (w/v) in polyoxyethylene octyl phenyl ether (TRITON® X-100), a non-ionic detergent/surfactant, and stored at 4° C. […] Test solutions were made fresh daily by mixing stock solutions with water for a final compound concentration of 0.5%. A solution of 0.5% 2-heptanone in paraffin oil was used as a positive control.

The subject of experiment [3] is OBP2. The experiment in a line: Fluorescent-quench ligand-protein-binding assay (OBP2 binding). Set-up: species or system Apis mellifera. An excerpt:
To identify a honeybee repellent disclosed herein, candidate compounds were screened based upon the fact that 2-heptanone is an established repellent of bees. 2-heptanone is thought to mediate its behavioral response through binding to a specific odorant-binding protein called OBP2. […] Such assays are generally known in the art. See, e.g., Briand, et al., Ligand-Binding Properties and Structural Characterization of a Novel Rat Odorant-Binding Protein Variant, Eur. J. Biochem. 267(10): 3079-3089 (2000); Briand, et al., Ligand Binding and Physico-Chemical Properties of ASP2, A Recombinant Odorant-Binding Protein From Honeybee (Apis mellifera L.), Eur. J. Biochem. 268(3): 752-760 (2001); Briand, et al., Characterization of a Chemosensory Protein (ASP3c) from Honeybee (Apis mellifera L.) as a Brood Pheromone Carrier, Eur. J. Biochem. 269(18): 4586-4596 (2002), each of which is hereby incorporated by reference in its entirety.

Consider `Oc1ccc2ccccc2c1C=NNc1ccccn1` [compound 66, 2-hydroxy-1-naphthaldehyde 2-pyridinylhydrazone], for which, in experiment [1], the “P (probability that a honeybee will return to a test dish, nP divided by n)” value was found to be 0.379 and the “nP (number of tests a honeybee returned to a preferred test dish)” value turned out to be 22. In experiment [2], the “2-heptanone positive bees testing positive to compound” value came out at 24.4%. Besides, the “OBP2 binding characteristic of compound” value in experiment [3] is given as “Moderate (Moderate, indicates that 50% or less of the compound bound to OBP2.)”.

With `COc1cc(C2N=C(c3ccccc3)N=C(c3ccccc3)N2)ccc1O` (stereo not shown) [compound 67, 4-(4,6-diphenyl-1,2-dihydro-1,3,5-triazin-2-yl)-2-methoxyphenol], in experiment [1], the “P (probability that a honeybee will return to a test dish, nP divided by n)” value is reported as 0.321 and the “nP (number of tests a honeybee returned to a preferred test dish)” value is recorded as 9. The “2-heptanone positive bees testing positive to compound” value in experiment [2] amounted to 26.5%. Also, in experiment [3], the “OBP2 binding characteristic of compound” value was “Moderate (Moderate, indicates that 50% or less of the compound bound to OBP2.)”.

On to `CC(=O)c1ccccc1NC(=O)C1CCC(C(=O)Nc2ccccc2C(C)=O)S1` (stereo not shown) [compound 68, N,N′-bis(2-acetylphenyl)tetrahydro-2,5-thiophenedicarboxamide], for which, in experiment [1], the “P (probability that a honeybee will return to a test dish, nP divided by n)” value is on record as 0.5 and the “nP (number of tests a honeybee returned to a preferred test dish)” value is on record as 2. In experiment [2], the “2-heptanone positive bees testing positive to compound” value worked out at 20.8%. In addition, in experiment [3], the “OBP2 binding characteristic of compound” value is given as “Moderate (Moderate, indicates that 50% or less of the compound bound to OBP2.)”.

As to `Oc1ccc2ccccc2c1C=Nc1ccc(I)cc1` [compound 74, 1-{[(4-iodophenyl)imino]methyl}-2-naphthol], in experiment [1], the “P (probability that a honeybee will return to a test dish, nP divided by n)” value is listed as 0.45 and the “nP (number of tests a honeybee returned to a preferred test dish)” value was found to be 18. Moreover, the “2-heptanone positive bees testing positive to compound” value in experiment [2] came out at 25.0%. Besides, the “OBP2 binding characteristic of compound” value in experiment [3] is on record as “Moderate (Moderate, indicates that 50% or less of the compound bound to OBP2.)”.

In the case of `Nc1c(C(=O)c2ccccc2)sc2nc(-c3cccnc3)ccc12` [compound 75, [3-amino-6-(3-pyridinyl)thieno[2,3-b]pyridin-2-yl](phenyl)methanone], in experiment [1], the “P (probability that a honeybee will return to a test dish, nP divided by n)” value is reported as 0.542 and the “nP (number of tests a honeybee returned to a preferred test dish)” value turned out to be 13. Also, the “2-heptanone positive bees testing positive to compound” value in experiment [2] is given as 25.0%. Further, the “OBP2 binding characteristic of compound” value in experiment [3] was “Moderate (Moderate, indicates that 50% or less of the compound bound to OBP2.)”.

On to `CCOc1ccccc1C=NN1C(=O)c2ccccc2C1=O` [compound 79], for which, in experiment [1], the “P (probability that a honeybee will return to a test dish, nP divided by n)” value was 1 and the “nP (number of tests a honeybee returned to a preferred test dish)” value was determined as 2. Further, the “2-heptanone positive bees testing positive to compound” value in experiment [2] is recorded as 23.1%. Besides, in experiment [3], the “OBP2 binding characteristic of compound” value was “Moderate (Moderate, indicates that 50% or less of the compound bound to OBP2.)”.

For the molecule `c1ccc(Oc2cc(-n3cccn3)nc(-c3ccccc3)n2)cc1` [compound 80, 4-phenoxy-2-phenyl-6-(1H-pyrazol-1-yl)pyrimidine], in experiment [1], the “P (probability that a honeybee will return to a test dish, nP divided by n)” value came out at 0.333 and the “nP (number of tests a honeybee returned to a preferred test dish)” value is 2. Also, in experiment [2], the “2-heptanone positive bees testing positive to compound” value amounted to 20.0%. Besides, the “OBP2 binding characteristic of compound” value in experiment [3] is “Moderate (Moderate, indicates that 50% or less of the compound bound to OBP2.)”.

With `CCOC(=O)c1cc(CC)sc1NC(=O)c1ccccc1` [compound 81, ethyl 2-(benzoylamino)-5-ethyl-3-thiophenecarboxylate], in experiment [1], the “P (probability that a honeybee will return to a test dish, nP divided by n)” value is 0.333 and the “nP (number of tests a honeybee returned to a preferred test dish)” value stood at 6. In experiment [2], the “2-heptanone positive bees testing positive to compound” value is 37.5%. Moreover, the “OBP2 binding characteristic of compound” value in experiment [3] is “Moderate (Moderate, indicates that 50% or less of the compound bound to OBP2.)”.

For the molecule `Oc1c(Br)cc(Cl)cc1C=Nc1ccccn1` [compound 83, 2-bromo-4-chloro-6-[(2-pyridinylimino)methyl]phenol], in experiment [1], the “P (probability that a honeybee will return to a test dish, nP divided by n)” value is 0.278 and the “nP (number of tests a honeybee returned to a preferred test dish)” value worked out at 10. In addition, the “2-heptanone positive bees testing positive to compound” value in experiment [2] is 47.7%. Moreover, the “OBP2 binding characteristic of compound” value in experiment [3] is “Moderate (Moderate, indicates that 50% or less of the compound bound to OBP2.)”.

For `O=C1NC(=S)SC1=Cc1ccc(N2CCOCC2)c([N+](=O)[O-])c1` [compound 86, 5-[4-(4-morpholinyl)-3-nitrobenzylidene]-2-thioxo-1,3-thiazolidin-4-one], in experiment [1], the “P (probability that a honeybee will return to a test dish, nP divided by n)” value is listed as 0.25 and the “nP (number of tests a honeybee returned to a preferred test dish)” value is given as 8. The “2-heptanone positive bees testing positive to compound” value in experiment [2] turned out to be 38.1%. In experiment [3], the “OBP2 binding characteristic of compound” value was “Moderate (Moderate, indicates that 50% or less of the compound bound to OBP2.)”.
